{"source": "patent US12220398B2", "about": "“Tumor therapeutic agent” (Eisai R&D Management Co., Ltd., priority 2015, dated 2025)", "assay_type_in_all_cases": "in vivo", "key": {"[1]": {"test_system": "human osteosarcoma cell line (G-292 clone A141B1)", "experiment": "Tumor growth inhibitory activity against human osteosarcoma cell line (G-292 clone A141B1) subcutaneous transplantation models", "conditions": "G-292 clone A141B1 s.c. xenograft in NOD SCID mice, lenvatinib mesylate 3 mg/kg p.o. Day 1-7, ifosfamide 250 mg/kg i.p. Day 1, etoposide 8 mg/kg i.p. Day 2-4, control group 362.5", "experimental": "Using 6 NOD SCID mice (NOD.CB17-Prkdc^scid/J, female mice, Charles River Laboratories Japan, Inc.) in each group, antitumor effects were evaluated when lenvatinib alone, a combination of two agents, i.e., ifosfamide and etoposide, or a combination of three agents, i.e., lenvatinib, ifosfamide, and etoposide, was administered. Cells of osteosarcoma cell line G-292 clone A141B1 (JCRB Cell Bank, IFO50107) derived from human were suspended at a concentration of 1×10^8 cells/mL, and 0.1 mL of the suspension was subcutaneously transplanted to the right flank of each mouse.\nThe longest diameter and short axis of the tumor were measured with an electronic digital caliper (Digimatic (tread mark) Caliper, Mitutoyo Corporation) 29 days after transplantation. The mice were divided into groups so that the average value of the tumor volume of each group was almost equal (Day 1). The tumor volume was calculated according to the following equation: Tumor volume=longest diameter(mm)×short axis(mm)×short axis(mm)/2\nLenvatinib mesylate was dissolved in purified water to a concentration of 0.3 mg/mL. lfosfamide (Sigma Aldrich) was dissolved in a physiological saline solution to a concentration of 25 mg/mL. […]\n(§1) The tumor volume of each mouse was measured 8 days (Day 8) after the start of administration."}, "[2]": {"test_system": "human osteosarcoma cell line (HOS)", "experiment": "Tumor growth inhibitory activity against human osteosarcoma cell line (HOS) subcutaneous transplantation models", "conditions": "HOS s.c. xenograft in NOD SCID mice, lenvatinib mesylate 3 mg/kg p.o. Day 1-7, ifosfamide 250 mg/kg i.p. Day 1, etoposide 8 mg/kg i.p. Day 2-4, control group 468.6", "experimental": "Tumor growth inhibitory activity of the combined use of lenvatinib, ifosfamide, and etoposide against human osteosarcoma cell line (HOS) subcutaneous transplantation models\nUsing 6 NOD SOD mice (NOD.CB17-Prkdc^scid/J, female mice, Charles River Laboratories Japan, Inc.) in each group, antitumor effects were evaluated when lenvatinib alone, a combination of two agents, i.e., ifosfamide and etoposide, or a combination of three agents, i.e., lenvatinib, ifosfamide, and etoposide, was administered. Cells of osteosarcoma cell line HOS (Human Science Research Resources Bank, IFO50106) derived from human were suspended at a concentration of 1×10^8 cells/mL, and 0.1 mL of the suspension was subcutaneously transplanted to the right of each mouse.\nThe longest diameter and short axis of the tumor were measured with an electronic digital caliper (Digimatic (tread mark) Caliper, Mitutoyo Corporation) 18 days after transplantation. The mice were divided into groups so that the average value of the tumor volume of each group was almost equal (Day 1). The tumor volume was calculated according to the following equation: Tumor volume=longest diameter(mm)×short axis(mm)×short axis(mm)/2\nLenvatinib mesylate was dissolved in purified water to a concentration of 0.3 mg/mL. […]\nas §1"}, "[3]": {"test_system": "human osteosarcoma cell line (143B)", "experiment": "Tumor growth inhibitory activity against human osteosarcoma cell line (143B) subcutaneous transplantation models", "conditions": "143B s.c. xenograft in NOD SCID mice, lenvatinib mesylate 3 mg/kg p.o. Day 1-7, ifosfamide 250 mg/kg i.p. Day 1, etoposide 8 mg/kg i.p. Day 2-4, control group 785.4", "experimental": "Using 6 NOD SCID mice (NOD.CB17-Prkdc^scid/J, female mice, Charles River Laboratories Japan, Inc.) in each group, antitumor effects were evaluated when lenvatinib alone, a combination of two agents, i.e., ifosfamide and etoposide, or a combination of three agents, i.e., lenvatinib, ifosfamide, and etoposide, was administered. Cells of osteosarcoma cell line 143B (ATCC CRL-8303) derived from human were suspended at a concentration of 1×10^7 cells/mL, and 0.1 mL of the suspension was subcutaneously transplanted to the right flank of each mouse.\nThe longest diameter and short axis of the tumor were measured with an electronic digital caliper (Digimatic (tread mark) Caliper, Mitutoyo Corporation) 9 days after transplantation. The mice were divided into groups so that the average value of the tumor volume of each group was almost equal (Day 1). The tumor volume was calculated according to the following equation: Tumor volume=longest diameter(mm)×short axis(mm)×short axis(mm)/2\nLenvatinib mesylate was dissolved in purified water to a concentration of 0.3 mg/mL. Ifosfamide (Sigma Aldrich) was dissolved in a physiological saline solution to a concentration of 25 mg/mL. […]\nas §1"}}}
{"smiles": "COc1cc2nccc(Oc3ccc(NC(=O)NC4CC4)c(Cl)c3)c2cc1C(N)=O", "note": "[Lenvatinib, 4-(3-chloro-4-(cyclopropylaminocarbonyl)aminophenoxy)-7-methoxy-6-quinolinecarboxamide]", "values": [{"measurement": "Average tumor volume (Day 8)", "setting": "[1]", "value": 267.9, "unit": "mm^3"}, {"measurement": "Average tumor volume (Day 8)", "setting": "[2]", "value": 352.2, "unit": "mm^3"}, {"measurement": "Average tumor volume (Day 8)", "setting": "[3]", "value": 438.6, "unit": "mm^3"}]}
